We go through six compounds from patent US20220162559A1, “MYOCARDIAL ORGANOIDS AND METHODS OF MAKING AND USES THEREOF” (CLEMSON UNIVERSITY RESEARCH FOUNDATION, priority 2018, published 2022).

Holding throughout (format): cell-based, human
Data set [1] has as its system control cardiac organoids. Description: Contraction analysis of beating organoids (contraction amplitude, beating), control organoids. From the text:
Non-adhesive agarose hydrogel molds were used as microtissue fabrication molds made from commercial master micro-molds from Microtissues, Inc (Providence, R.I.). Working cell suspensions of each cell type were used at about 4.0×10^6 cells/ml to make organoid cell ratio mixtures of about 50% hiPSC-CMs and about 50% non-myocyte (4:2:1 ratio of FBs, HUVECs, hADSCs, respectively) and mixed with 1 volume media for a final concentration of about 2.0×10^6 cells/ml. hiPSC-CM only spheroids were fabricated using 100% hiPSC-CMs at a final concentration of about 2.0×10^6 cells/ml. Approximately 75 μl of the cell suspension was pipetted into each agarose mold. […]
(§1) Videos of spontaneously beating spheroids from each group were recorded immediately out of the incubator (to reduce temperature induced changes in beating) for each condition using a Carl Zeiss Axiovert A1 Inverted Microscope and Zen 2011 software (Zeiss, Gottingen, Germany). Threshold edge-detecting in ImageJ software (NIH—US National Institutes of Health) was used on high contrast spheroid picture series and graphed to realize beating profiles of fractional area change, from which contraction amplitude was calculated. Contraction amplitudes were calculated as the percent change in fractional area change amplitude between contraction and relaxation. Beat rate was calculated as the number of beats per second.

Data set [2] concerns control cardiac organoids. Kind of data set: Immunofluorescent staining of organoid sections (vimentin), control organoids. Conditions: 48 hrs of exposure. As to the method:
Freshly collected organoids were flash frozen in Tissue-Tek OCT compound (Sakura, Torrance, Calif.). Embedded spheroids were cryosectioned into 7 μm thickness layers onto glass slides for immunofluorescence staining. The sections were fixed with pre-cooled acetone (−20° C.) for 10 min. After washing (2 times at 5 min) in PBS with 0.1% Triton X-100 (PBST) (Sigma), blocking buffer was made with 10% serum corresponding to host species of secondary antibody in PBST and added to sections for 1 hr at room temperature. Sections were incubated with primary antibody diluted in PBST (1:200) overnight at 4° C. or 2 hrs at room temperature: mouse anti-alpha smooth muscle actin (A5228, Sigma), mouse anti-alpha sarcomeric actinin (ab9465, Abcam), rabbit anti-collagen type I (ab34710, Abcam), rabbit anti-vimentin (ab92547, Abcam), rabbit anti-von Willebrand factor (ab6994, Abcam). After washing in PBST (2 times at 5 min), sections were incubated with complement secondary antibodies or conjugated primary antibodies diluted in PBST for 1 hr at room temperature: Alexa Fluor 488 phalloidin (A12379, Thermo), goat anti-mouse Alexa Fluor 546 (A1103, Thermo), goat anti-rabbit Alexa Fluor 647 (111-605-144, Jackson ImmunoResearch, West Grove, Pa.). […] Vimentin radial density was calculated using the Radial Profile ImageJ plugin and normalized to radius equal to 1. […]

The subject of data set [3] is cardiac infarct organoids. Description: Contraction analysis of beating organoids (contraction amplitude, beat rate), infarct organoids. As to the method:
For the cardiac infarction protocol, microtissues (about150 μm radius on D0) were placed in a hypoxia chamber within the incubator at about 10% O2 with 1 μM of norepinephrine (NE, A7257, Sigma) after 4 days of pre-culture. Media was changed with fresh NE every 2 days for the length of the experiment (10 days). For extended validation studies, 20 ng/ml of human recombinant transforming growth factor beta 1 (TGF-β1, ab50036, Abcam, Cambridge, UK), 10 nM of JQ1 (SML1524, Sigma), and 2 ng/ml of human recombinant vascular endothelial growth factor (VEGF, CC-4114A, Lonza) was added to the media every 2 days for infarct organoids for the length of the experiment (10 days).
as §1

Data set [4] relates to cardiac infarct organoids. Kind of data set: TUNEL apoptotic staining of organoid sections. The settings on record: 1 μM, 48 hours of exposure.
Protocol: The Roche In Situ Cell Death Detection Kit (Sigma) was used to visualize apoptotic cells in frozen sections of cardiac organoids based on the Roche protocol. Briefly, cardiac organoid frozen sections were fixed with 4% paraformaldehyde in PBS for 20 min at room temperature. Following washing in PBS for 30 minutes, samples were incubated in a permeabilization solution (0.1% Triton X-100 and 0.1% sodium citrate in PBS) for 2 minutes on ice. Then 50 μl of the TUNEL reaction mixture were added to samples and incubated at 37° C. for 1 hr. After washing in PBS (2 times at 5 min), nuclei were counterstained with DAPI (Molecular Probes/Invitrogen) diluted in PBS for 15 min at ambient temperature. Following the final wash procedure (PBS, 2 times at 5 min), glass cover slips were added to the slides using Fluoro-Gel (Electron Microscopy Sciences). TCS SP5 AOBS laser scanning confocal microscope (Leica Microsystems) was used for imaging.
The next data set has as its system hiPSC-CMs. Kind of data set: 2D hiPSC-CM culture with in vitro infarction protocol and DOX. The settings on record: hypoxic culture (1%) with 1 μM NE 2 days prior to 2 days DOX treatment. From the text:
As a control, we performed 2D studies using hiPSC-CMs with DOX to evaluate the combined effects of an in vitro infarction protocol and DOX on hiPSC-CMs. […] Nearly 100% of cells death was found for hiPSC-CMs after 4 days of the same hypoxic culture using hiPSC-CM media with galactose but no glucose, which has been attributed to the lack of glucose in the hiPSC-CM media. In addition, extended culture of 2D hiPSC-CMs in organoid media to mimic prolonged organoid infarction protocol led to minimal and irregular hiPSC-CM contractile behavior accompanied with the reduction of αSA+ cells. In contrast to the inherent difficulties of using 2D hiPSC-CM culture systems to model post-MI responses, human infarct organoids provide a robust, biomimetic […] tissue-level context to evaluate the effects of DOX on the post-MI cardiac tissues.

The test system of data set [5] is cardiac infarct organoids. Description: Immunofluorescent staining of organoid sections (vimentin, alpha sarcomeric actinin, αSMA, collagen), infarct organoids. As to the method: Freshly collected organoids were flash frozen in Tissue-Tek OCT compound (Sakura, Torrance, Calif.). Embedded spheroids were cryosectioned into 7 μm thickness layers onto glass slides for immunofluorescence staining. The sections were fixed with pre-cooled acetone (−20° C.) for 10 min. After washing (2 times at 5 min) in PBS with 0.1% Triton X-100 (PBST) (Sigma), blocking buffer was made with 10% serum corresponding to host species of secondary antibody in PBST and added to sections for 1 hr at room temperature. Sections were incubated with primary antibody diluted in PBST (1:200) overnight at 4° C. or 2 hrs at room temperature: mouse anti-alpha smooth muscle actin (A5228, Sigma), mouse anti-alpha sarcomeric actinin (ab9465, Abcam), rabbit anti-collagen type I (ab34710, Abcam), rabbit anti-vimentin (ab92547, Abcam), rabbit anti-von Willebrand factor (ab6994, Abcam). After washing in PBST (2 times at 5 min), sections were incubated with complement secondary antibodies or conjugated primary antibodies diluted in PBST for 1 hr at room temperature: Alexa Fluor 488 phalloidin (A12379, Thermo), goat anti-mouse Alexa Fluor 546 (A1103, Thermo), goat anti-rabbit Alexa Fluor 647 (111-605-144, Jackson ImmunoResearch, West Grove, Pa.). After washing in PBST (2 times at 5 min), nuclei were counterstained with DAPI (Molecular Probes/Invitrogen, Eugene, Oreg.) diluted in PBST for 15 min at room temperature. Following the final wash procedure (PBST, 2 times at 5 min), glass cover slips were added using Fluoro-Gel (Electron Microscopy Sciences, Hatfield, Pa.) and stored in 4° C. until imaging. TCS SP5 AOBS laser scanning confocal microscope (Leica Microsystems, Inc., Exton, Pa.) was for imaging. Vimentin radial density was calculated using the Radial Profile ImageJ plugin and normalized to radius equal to 1. Each analysis consisted of high resolution images at 400× total magnification of cross sections of different organoids.

The test system of data set [6] is cardiac infarct organoids. Description: Calcium transient imaging with two-photon light sheet microscope (beating synchronization). An excerpt:
To functionally interpret the transcriptomic shifts in cardiomyocyte calcium handling and arrhythmogenesis, a two-photon, laser-scanning, light sheet (2PLS) microscope was used that allowed for deeper tissue penetration with high-speed imaging (50 frames/sec) and orthogonal selected plane (about 4 μm thickness) illumination.^27 Given its strength for in situ imaging, the 2PLS microscope allowed for the visualization of calcium handling in the interior regions of 3D cardiac microtissues to study calcium handling and arrhythmogenicity across the organoids. Organoids were fabricated with GCaMP6-labeled hiPSC-CMs and calcium transient amplitudes (ΔF/F0) were measured from “cell-sized” regions of interest (ROIs) (representing individual cardiomyocytes) inside organoids. […] In particular, imaging and calcium transient profiles of synchronized edge and interior cardiomyocyte ROIs from human induced pluripotent stem cell-derived-cardiomyocyte (hiPSC-CM) spheroids were cultured in the cardiac organoid infarction protocol.

Data set [7] deals with cardiac infarct organoids. Description: Mechanical testing using micropipette aspiration (elastic modulus). As to the method: A micropipette aspiration was performed in media similarly to previous studies using a custom-built fluid reservoir to generate a fixed pressure of 40 cm H2O (about 3.9 kPa) in pulled micropipette to apply the suction force on test organoids.^23,24 Validation and stability of pressure changes were confirmed using an in-line 5 kPa 2-port pressure transducer with about 1 Pa sensitivity (Honeywell, Morristown, N.J.). Micropipettes were pulled to a final inner diameter of approximately 40-60 μm. Prior to and during testing, organoids were soaked in a 30 mM solution of 2,3-butanedione monoxime (BDM) (Sigma) in media for 5-10 min to eliminate contractions to reduce the effect of contractile status on tissue stiffness. Pressure was applied to the organoid surface and pictures were recorded until reaching equilibrium deformation (about 5 min) (FIG. 2F). Under the homogeneous half-space model assumptions^23, the change in length (L) from pre-deformation to equilibrium deformation was used to calculate the elastic modulus according the previously established relationship: E=3aΔp/2πL Φ(η), where E is elastic modulus, a is the inner micropipette radius, Δp is the applied pressure, Φ( ) is the wall function (under punch model assumptions), and η is the wall parameter.^24,25

Setting [8] is: 10 nM added to infarct organoid culture.
Where [9] appears, read: 20 ng/ml added during infarction protocol.

For `COc1cccc2c1C(=O)c1c(O)c3c(c(O)c1C2=O)C[C@@](O)(C(=O)CO)C[C@@H]3O[C@H]1C[C@H](N)[C@H](O)[C@H](C)O1` [DOX, doxorubicin], the “concentration at cessation of beating” value in data set [1] worked out at 10 µM; in data set [3] (infarct organoids) it was 1 µM. Moreover, the IC50 in data set [1] (Homo sapiens, 48 hrs of exposure starting on D10) was about 370 nM; in data set [3] (Homo sapiens, infarct organoids, 48 hrs of exposure starting on D10) it was about 150 nM. The “dose inducing an increase in vimentin+ density” value in data set [2] was 1.0 µM; in data set [5] (infarct organoids, 48 hrs of exposure), 0.1 µM. Also, the “apoptosis (TUNEL analysis)” value in data set [4] is listed as “significantly increased apoptosis”. Besides, in the data set on hiPSC-CMs, the “viability and contractile structures/organization of 2D hiPSC-CMs” value is “exacerbation of DOX-induced reduction in viability and reduction in contractile structures/organization”. Further, in data set [5] (interior of infarct organoids, 0.1 μM), the “αSA staining relative to vehicle control (sarcomeric organization)” value was “significantly decreases”.

Turning to `Cc1sc2c(c1C)C(c1ccc(Cl)cc1)=N[C@@H](CC(=O)OC(C)(C)C)c1nnc(C)n1-2` [JQ1], the “unsynchronized beating of infarct organoids” value in data set [6] (10 nM) is recorded as “reduction of unsynchronization”. The “vimentin+ density at the infarct organoid edge” value in data set [5] (setting [8]) was “significantly reduced”. Besides, the “organoid stiffness (elastic modulus)” value in data set [7] (setting [8]) is on record as “significant decrease in stiffness”.

As for `NC[C@H](O)c1ccc(O)c(O)c1` [NE, norepinephrine], in data set [3] (10% O2 with 1 μM for 10 days, versus control organoids), the beat rate result is “increase in beat rate”.

In the case of `COCCc1ccc(OCC(O)CNC(C)C)cc1` (centres unmarked) [metoprolol], the “NE-induced increase in beat rate” value in data set [3] (infarct organoids cultured with 10 μM, D10) is reported as “reversed”.

Regarding “TGF-β1: human recombinant transforming growth factor beta 1, pro-fibrotic stimulus”, the “collagen organization and presence of αSMA+ myofibroblast-like cells” value in data set [5] (setting [9]) was “further increased”. The “organoid stiffness (elastic modulus)” value in data set [7] (setting [9]) is on record as “significant increase in organoid stiffness”.

Consider VEGF, for which, in data set [6] (2 ng/ml), the “unsynchronized beating of infarct organoids” value was “reduction of unsynchronization”.

Usually IC50 stands for the concentration at which inhibition is half-maximal.
